This is an account of results in patent publication US20170044492A1, “CONVERSION OF SOMATIC CELLS INTO NOCICEPTORS, AND METHODS OF USE THEREOF” (CHILDERN'S MEDICAL CENTER CORPORATION, priority 2013, published 2017).

Several values for one entry are separate records, joined by “and”; a condition that tells them apart may be missing. Identical values can stand only once. Like-named read-outs stand apart in the source and are kept apart here.

For assay [1], the target named is T1, P2X3 subtype of ionotropic purinergic receptors (Mus musculus, UniProt Q3UR32).
T1 construct: Whole-cell patch recordings were performed on induced tdTomato-positive nociceptors, derived from TrpV1-Cre^+/−::tdTomato^+/− MEFs; endogenous in cells; host or cells: tdTomato-positive induced nociceptors reprogrammed from TrpV1-Cre+/-::tdTomato+/- mouse embryonic fibroblasts
T1 sequence (Q3UR32 1-397): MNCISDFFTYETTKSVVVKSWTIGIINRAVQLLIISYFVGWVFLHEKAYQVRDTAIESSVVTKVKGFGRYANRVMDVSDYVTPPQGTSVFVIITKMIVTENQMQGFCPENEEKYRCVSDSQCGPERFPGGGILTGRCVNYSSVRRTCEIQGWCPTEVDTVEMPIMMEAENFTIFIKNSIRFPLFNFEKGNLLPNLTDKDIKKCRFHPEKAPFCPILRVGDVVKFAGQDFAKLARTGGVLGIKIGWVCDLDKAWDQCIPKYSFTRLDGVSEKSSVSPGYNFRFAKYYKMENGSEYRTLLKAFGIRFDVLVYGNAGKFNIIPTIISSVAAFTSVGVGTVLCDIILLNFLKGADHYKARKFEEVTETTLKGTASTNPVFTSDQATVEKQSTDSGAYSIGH
The experiment in a line: Whole-cell patch clamp of P2X3 currents in induced nociceptors. In kind it is cell-based. The conditions noted are these: 30 μM. (Patch clamp records ionic current or voltage across a cell membrane.)

Assay [2] concerns tdTomato-positive induced nociceptors. Description: Calcium imaging of tdTomato-positive induced nociceptors with Trp channel agonists. It counts as cell-based, mouse.
In assay [3] the test system is tdTomato-positive primary DRG neurons. The experiment in a line: Calcium imaging of tdTomato-positive primary DRG neurons with Trp channel agonists. It counts as cell-based, mouse.
For another assay, the system named is induced neurons. Description: Extracellular multi-electrode array recording of induced neurons after agonist application. In kind it is cell-based, mouse.
Assay [4] has as its system KCl-responding neurons derived from the BAM factors. The experiment in a line: Calcium imaging of neurons derived from the BAM factors alone. In kind it is cell-based, mouse.
The subject of assay [5] is tdTomato-positive induced neurons. Description: Whole-cell patch clamp of induced nociceptors. It counts as cell-based, mouse.
For another assay, the target named is T2, TrpV1 receptor (Mus musculus, UniProt Q704Y3).
T2 construct: endogenous in cells; host or cells: tdTomato-positive induced nociceptors reprogrammed from TrpV1-Cre+/-::tdTomato+/- mouse embryonic fibroblasts
T2 sequence (Q704Y3 whole entry): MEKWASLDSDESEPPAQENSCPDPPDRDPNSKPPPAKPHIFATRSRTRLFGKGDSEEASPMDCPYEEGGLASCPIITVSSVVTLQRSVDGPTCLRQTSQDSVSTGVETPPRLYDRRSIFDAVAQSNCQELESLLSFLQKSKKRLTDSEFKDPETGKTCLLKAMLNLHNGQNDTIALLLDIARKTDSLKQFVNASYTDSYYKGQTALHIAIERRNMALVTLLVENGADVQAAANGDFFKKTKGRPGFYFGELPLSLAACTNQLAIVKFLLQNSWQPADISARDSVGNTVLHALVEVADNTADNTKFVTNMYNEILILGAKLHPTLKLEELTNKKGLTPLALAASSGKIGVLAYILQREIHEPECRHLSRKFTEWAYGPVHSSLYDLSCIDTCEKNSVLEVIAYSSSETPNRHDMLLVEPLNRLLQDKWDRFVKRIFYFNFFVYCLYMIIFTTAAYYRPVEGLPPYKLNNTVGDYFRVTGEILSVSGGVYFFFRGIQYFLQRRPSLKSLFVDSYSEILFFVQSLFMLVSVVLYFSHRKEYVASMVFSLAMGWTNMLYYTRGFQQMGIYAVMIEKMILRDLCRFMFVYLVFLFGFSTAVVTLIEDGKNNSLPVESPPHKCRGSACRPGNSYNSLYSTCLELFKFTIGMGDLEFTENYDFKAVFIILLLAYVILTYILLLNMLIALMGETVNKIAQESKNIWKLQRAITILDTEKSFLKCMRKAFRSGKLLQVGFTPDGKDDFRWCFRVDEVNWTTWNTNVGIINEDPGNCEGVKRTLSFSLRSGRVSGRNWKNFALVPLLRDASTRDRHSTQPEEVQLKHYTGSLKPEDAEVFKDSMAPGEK
The experiment in a line: PGE2 sensitization of the capsaicin response, calcium imaging of induced nociceptors. It counts as cell-based.

For the next assay, the system named is induced human neurons. The experiment in a line: Whole-cell patch clamp of induced human neurons. It counts as cell-based.
Assay [6] relates to induced nociceptors. In kind it is cell-based, mouse.
The next assay deals with BAM-derived neurons. In kind it is cell-based, mouse.
Another assay deals with primary DRGs. It counts as cell-based, mouse.
Assay [7] has as its system induced nociceptors. It counts as cell-based, mouse. This is another data set of the same source.
Where [8] appears, read: induced nociceptors, capsaicin 1 μM, mustard oil 100 μM, menthol 250 μM, n=227 tdTomato-positive cells that responded to KCl.
Where [9] appears, read: adult TrpV1::tdTomato mice, same procedure, n=249 tdTomato-positive cells that responded to KCl.

With `Nc1ncnc2c1ncn2[C@@H]1O[C@H](COP(=O)(O)CP(=O)(O)OP(=O)(O)O)[C@@H](O)[C@H]1O` [α, β-methylene-ATP], the “neurons with rapidly-adapting inward currents elicited by agonist (neurons/total)” value in [1] is listed as 8/16.

Regarding `C=CCN=C=S` [mustard oil], the “tdTomato-positive cells that responded to agonist” value in assay [2] was determined as 9%. Further, the “tdTomato-positive primary DRG neurons that responded to agonist” value in assay [3] stood at 2.5%. Besides, the “arrays with robust action potential firing after agonist application (arrays/total)” value in the assay on induced neurons is listed as 3/3.

Regarding `COc1cc(CNC(=O)CCCC/C=C/C(C)C)ccc1O` [capsaicin], in [2] (setting [8]), the “tdTomato-positive cells that responded to agonist” value is 39%. The “tdTomato-positive primary DRG neurons that responded to agonist” value in assay [3] (setting [9]) came to 36%. Further, the “KCl-responding neurons that responded to capsaicin (responders/total)” value in [4] is on record as 0/50. Moreover, the “arrays with robust action potential firing after agonist application (arrays/total)” value in the assay on induced neurons (capsaicin 1 μM, mustard oil 100 μM) was 3/3. In addition, in [5] (1 μM capsaicin, voltage clamp, holding −80 mV), the “neurons with inward currents elicited by capsaicin (neurons/total)” value is recorded as 6/11. Further, the “mean change in fluorescence absorption ratio, initial capsaicin response” value at TrpV1 receptor (300 nM capsaicin, before PGE2) was 0.028±3.0*10^−3.

As to `NC1=N[C@H](O)[C@H]2[C@H]3O[C@]4(O)O[C@@H]([C@@H](O)[C@@]2(N1)[C@@H]4O)[C@]3(O)CO` [TTX, tetrodotoxin], in assay [5], the “induced neurons firing single TTX-resistant action potentials overshooting 0 mV (neurons/total)” value was 8/16 and 7/12; the “induced neurons with TTX-resistant sodium currents greater than 50 pA (neurons/total)” value is on record as 14/15. For the same compound, in the assay with induced human neurons, the “neurons with TTX-resistant sodium currents (neurons/total)” value is 10/10.

For the compound `[Cl-].[K+]` [KCl, potassium chloride], the entries for the “CGRP released, mean (s.e.m.)” value with induced nociceptors [6] and in the assay on BAM-derived neurons were 390.4 (52.5) pg ml-1 and 10.3 (2.6) pg ml-1, respectively. Further, in the assay on primary DRGs, the “CGRP release from primary DRGs” value was “dose-dependent increase in CGRP release”.

In the case of ZD7288, the “neurons with ZD7288-sensitive HCN currents (neurons/total)” value in assay [5] is recorded as 2/2.

As to `CCCCC[C@H](O)/C=C/[C@H]1[C@H](O)CC(=O)[C@@H]1C/C=C\CCCC(=O)O` [PGE2, Prostaglandin E2], the “mean change in fluorescence absorption ratio, PGE2-sensitized capsaicin response” value on TrpV1 receptor (second 300 nM capsaicin application after 1 μM PGE2 for two minutes, n=41) is 0.18±6.0*10^−3.

For the compound `O=C1[O][Pt]2([NH][C@@H]3CCCC[C@H]3[NH]2)[O]C1=O` [oxaliplatin], the “sensitization of capsaicin response (spikes)” value in the assay on induced nociceptors [7] is reported as “marked sensitization”.

Turning to `CC1CCC(C(C)C)C(O)C1` (stereo not drawn) [menthol], the “tdTomato-positive cells that responded to agonist” value in assay [2] (setting [8]) amounted to 3%. Also, the “tdTomato-positive primary DRG neurons that responded to agonist” value in assay [3] (setting [9]) came to 2.5%.
